Columns and labels:
mice [1] = conditions: oral administration to mice; cited from earlier work
mice [2] = conditions: murine; cited from earlier work
C57BL/6 mice [3] = conditions: prophylactic oral administration, 1 mg/kg, three times a week; cited from earlier work
[4] = Hale et al. 2004; cited from earlier work
[5] = test system: patients with multiple sclerosis; conditions: Phase II, relapsing-remitting multiple sclerosis; cited from earlier work
[6] = short-term high dose; cited from earlier work
mice [7] = conditions: by reducing the number of mature osteoclasts attached to the bone surface; cited from earlier work
[8] = test system: dendritic cells infected with Francisella tularensis; conditions: Bar-Haim et al. 2008; cited from earlier work
[9] = spared nerve injury model; cited from earlier work
S1P3 receptor = S1P3 receptor (Homo sapiens (Human), UniProt Q99500); conditions: due to agonism of the S1P3 receptor; cited from earlier work
S1P3 receptor, sequence (Q99500 whole entry): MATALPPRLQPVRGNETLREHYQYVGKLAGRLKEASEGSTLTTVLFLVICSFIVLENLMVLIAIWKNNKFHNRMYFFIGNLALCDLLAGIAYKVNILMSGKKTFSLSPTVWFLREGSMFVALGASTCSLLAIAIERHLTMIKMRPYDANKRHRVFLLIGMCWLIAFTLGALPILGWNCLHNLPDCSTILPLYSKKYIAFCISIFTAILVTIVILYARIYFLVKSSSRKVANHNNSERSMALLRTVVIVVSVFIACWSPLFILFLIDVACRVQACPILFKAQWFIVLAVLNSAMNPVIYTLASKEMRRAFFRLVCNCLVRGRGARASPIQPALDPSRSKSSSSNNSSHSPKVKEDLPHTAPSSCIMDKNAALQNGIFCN

Sprague-Dawley rats [10] = test: Cardiac telemetry in the rat (bradycardia assay); type: in vivo; conditions: oral, vehicle PEG400, heart rate measured over a 120 min period, vs vehicle
Method: Animals: Male Sprague-Dawley rats (250-300 g at time of surgery) were implanted by Charles River Laboratories (Wilmington, Mass.) with cardiac transmitting devices (Data Sciences PhysioTel C50-PXT) into the peritoneal space, with a pressure-sensing catheter inserted into the descending aorta. Rats are allowed at least one week to recover. Rats were housed in individual cages and maintained in a humidity-controlled (30-70%) and temperature-controlled (20-22° C.) facility on a 12 h:12 h light/dark cycle (lights on at 7:00 am) with free access to food (Harlan-Teklad, Orange, Calif., Rodent Diet 8604) and water. Rats were allowed one week of habituation to the animal facility before testing. Measurement of cardiovascular parameters: The implanted transmitting devices transmitted continuous measurements of blood pressure (systolic, diastolic, mean arterial, pulse), heart rate, body temperature, and motor activity in freely moving conscious animals. […] Telemetry recording occurred over a 21-h period, starting at noon and continuing until 9:00 am the following day. A maximum of eight rats were tested at a time, and the same eight rats were utilized for all treatment groups in a within-subject design. Drug treatment: […] A full study (vehicle+3 doses) required four separate testing sessions, which occur on Mondays-Tuesdays and Thursdays-Fridays. […]

C57BL/6 mice [11] = test: MOG-induced experimental autoimmune encephalomyelitis (EAE) in mice; type: in vivo, mouse; conditions: 0.3, 1 and 3 mg/kg orally once a day from day 3 until day 21 (FIG. 4)
Sprague-Dawley rats [12] = test: Rat Peripheral Lymphocyte Lowering (PLL) assay; type: in vivo; conditions: 1.00 mg/kg oral dose, 5 hours post-dose, male Sprague-Dawley rats, vs vehicle (FIG. 2)
Method: Animals: Male Sprague-Dawley rats (7 weeks of age at start of study) (Charles River Laboratories) were housed two per cage and maintained in a humidity-controlled (40-60%) and temperature-controlled (68-72° F.) facility on a 12 h: 12 h light/dark cycle (lights on at 6:30 am) with free access to food (Harlan Teklad, Orange, Calif., Rodent Diet 8604) and water. Rats were allowed one week of habituation to the animal facility before testing. PLL Assay: […] Peripheral blood samples were collected at 5 hours post-dose. Blood was collected via indwelling catheter. A complete cell count (CBC), including lymphocyte count, was obtained using a CELL-DYN® 3700 (Abbott Laboratories, Abbott Park, Ill.) instrument. Results are presented in FIG. 2, in which peripheral blood lymphocyte (PBL) count is shown for the 5 hour group.

BALB/c mice = test: Mouse Peripheral Lymphocyte Lowering (PLL) assay; type: in vivo; conditions: 1.00 mg/kg oral dose, 5 hours post-dose, male BALB/c mice, vs vehicle (FIG. 1)
Method: Animals: Male BALB/c mice (Charles River Laboratories, Wilmington, Mass.) were housed four per cage and maintained in a humidity-controlled (40 to 60%) and temperature-controlled (68 to 72° F.) facility on a 12 h:12 h light/dark cycle (lights on at 6:30 am) with free access to food (Harlan Teklad, Orange, Calif., Rodent Diet 8604) and water. Mice were allowed one week of habituation to the animal facility before testing. PLL Assay: […] Peripheral blood samples were collected at 5 hours post-dose. The mice were anesthetized with isoflurane and blood was collected via cardiac puncture. A complete cell count (CBC), including lymphocyte count, was obtained using a CELL-DYN® 3700 (Abbott Laboratories, Abbott Park, Ill.) instrument. Results are presented in FIG. 1, in which peripheral blood lymphocyte (PBL) count is shown for the 5 hour group.

Female Lewis rats = test: Collagen-induced arthritis rat model; type: in vivo; conditions: 0.3, 1 and 3 mg/kg p.o., q.d., day 0 through day 16 (FIG. 3)
Method: Female Lewis rats were used in this study. Acclimated animals were anesthetized with isoflurane and given the first collagen injection (day 0). On day 6, they were anesthetized again for the second collagen injection. Collagen was prepared by making a 4 mg/mL solution in 0.01N acetic acid. Equal volumes of collagen and incomplete Freund's adjuvant were emulsified by hand mixing until a bead of this material held its form when placed in water. Each animal received 300 μL of the mixture each time, spread over 3 subcutaneous sites on the back. Treatment (p.o., q.d., 5 mL/kg dosing volume) began on day 0 and continued through day 16 with vehicle or compounds given at 24 h intervals. Rats were weighed on days 0, 3, 6 and 9 through 17 and caliper measurements of the ankles taken on days 9 through 17.

S1P1 receptor = S1P1 receptor (Homo sapiens (Human), UniProt P21453); test: HTRF assay for direct cAMP measurement; type: cell-based; conditions: recombinant CHO-K1 cells stably transfected with S1P1
S1P1 receptor, sequence (P21453 whole entry): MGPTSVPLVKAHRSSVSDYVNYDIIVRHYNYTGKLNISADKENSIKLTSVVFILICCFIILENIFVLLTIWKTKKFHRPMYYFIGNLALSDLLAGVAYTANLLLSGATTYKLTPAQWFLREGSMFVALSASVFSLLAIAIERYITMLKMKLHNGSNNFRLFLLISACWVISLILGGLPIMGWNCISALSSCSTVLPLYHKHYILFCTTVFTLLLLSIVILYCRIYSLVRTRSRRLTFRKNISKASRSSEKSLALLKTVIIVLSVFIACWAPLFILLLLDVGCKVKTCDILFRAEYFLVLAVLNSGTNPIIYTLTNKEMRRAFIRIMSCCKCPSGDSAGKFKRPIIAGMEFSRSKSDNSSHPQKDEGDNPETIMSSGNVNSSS
Source text: CHO-K1 cells were obtained from ATCC® (Manassas, Va.; Catalog #CCL-61). […] The HTRF® assay has been used to determine EC50 values for S1P1 receptor agonists. Principle of the assay: HTRF® assay kit was purchased from Cisbio-US, Inc. (Bedford, Mass.; Catalog #62AM4PEC). The HTRF® assay supported by the kit is a competitive immunoassay between endogenous cAMP produced by the CHO-K1 cells and tracer cAMP labeled with the dye d2. The tracer binding is visualized by a monoclonal anti-cAMP antibody labeled with Cryptate. The specific signal (i.e., fluorescence resonance energy transfer, FRET) is inversely proportional to the concentration of unlabeled cAMP in the standard or sample. Standard curve: The fluorescence ratio (665 nm/620 nm) of the standards (0.17 to 712 nM cAMP) included in the assay was calculated and used to generate a cAMP standard curve according to the kit manufacturer's instructions. The fluorescence ratio of the samples (test compound or compound buffer) was calculated and used to deduce respective cAMP concentrations by reference to the cAMP standard curve. […] The plate was then further incubated at room temperature for 1 hour, after which the assay plate was read. Assay readout: HTRF® readout was accomplished using a PHERAstar (BMG LABTECH Inc., Durham, N.C.) or EnVision™ (PerkinElmer, Fremont Calif.) microplate reader.

SMILES	VEGF-induced vascular permeability (mice [1])	initiation of contact hypersensitivity (mice [2])	development of EAMG (C57BL/6 mice [3])	induction of lymphopenia (PLL) [4]	MRI lesions and clinical disease activity [5]	ocular infiltrates [6]	ovariectomy-induced osteoporosis (mice [7])	migration of infected dendritic cells to the mediastinal lymph node [8]	nociceptive behavior [9]	adverse event in clinical trials (S1P3 receptor)	heart rate (bradycardia) (Sprague-Dawley rats [10])	severity of disease symptoms (clinical score) in EAE (C57BL/6 mice [11])	peripheral blood lymphocyte (PBL) count lowering (Sprague-Dawley rats [12])	peripheral blood lymphocyte (PBL) count lowering (BALB/c mice)	mean ankle diameter (Female Lewis rats)	S1P1 receptor agonism (decreased cAMP concentration) (S1P1 receptor)	EC50 (S1P1 receptor; n = 22) [nM]
CCCCCCCCc1ccc(CCC(N)(CO)CO)cc1 [FTY720]	potently blocked VEGF-induced vascular permeability	impair initiation of murine contact hypersensitivity (CHS)	completely prevented the development of experimental autoimmune myasthenia gravis (EAMG)	rapidly and reversibly induce lymphopenia	reduce the number of lesions detected by magnetic resonance imaging (MRI) and clinical disease activity	rapidly reduced ocular infiltrates	relieved ovariectomy-induced osteoporosis	impair migration of dendritic cells infected with Francisella tularensis to the mediastinal lymph node	reduce the nociceptive behavior	transient asymptomatic bradycardia							
O=C(O)C[C@H]1CCc2c1[nH]c1ccc(OCc3ccc(C4CCCC4)c(C(F)(F)F)c3)cc21 [(R)-2-(7-(4-cyclopentyl-3-(trifluoromethyl)benzyloxy)-1,2,3,4-tetrahydrocyclopenta[b]indol-3-yl)acetic acid]											no or substantially no reduction of heart rate	exhibited activity in the mouse EAE assay	exhibited activity for inducing PBL lowering (lymphopenia)	exhibited activity for inducing PBL lowering (lymphopenia)	exhibited activity for reducing mean ankle diameter	agonist of the S1P1 receptor	0.102

From patent US9175320B2, “Processes for the preparation of (R)-2-(7-4-cyclopentyl-3-(trifluoromethyl)benzyloxy)-1,2,3,4-tetrahydrocyclopenta[B]indol-3-yl)acetic acid and salts thereof” (ARENA PHARMACEUTICALS, INC., priority 2010, dated 2015)
